This is an account of results in article PMC5539068, “Structural optimization and evaluation of novel 2-pyrrolidone-fused (2-oxoindolin-3-ylidene)methylpyrrole derivatives as potential VEGFR-2/PDGFRβ inhibitors” (Chemistry Central Journal, 2017).

The structures appear in SMILES notation. Entries after “also recorded” stand apart in the source; their conditions may differ. Bounds are passed on as bounds.

One data set has as its system NCI-H460 cells. As to the kind of experiment: Cell proliferation assay (MTT), NCI-H460. Conditions: for IC50: Homo sapiens, NCI-H460, 72 h, read-out: IC50 NCI-H460; for selective index (SI) NCI-H460: versus Detroit 551.
For another data set, the target named is VEGFR-2 (Homo sapiens, UniProt P35968). The experiment in a line: In-vitro kinase assay (HotSpot, 33P), VEGFR-2. Conditions: for % inhibition of VEGFR-2 at 80 nM: 80 nM compound, ATP 10.0 μM; for inhibition at 0.08 µM: read-out: % inhibition of VEGFR-2 at 80 nM.
Sequence of VEGFR-2 (P35968 20-1356): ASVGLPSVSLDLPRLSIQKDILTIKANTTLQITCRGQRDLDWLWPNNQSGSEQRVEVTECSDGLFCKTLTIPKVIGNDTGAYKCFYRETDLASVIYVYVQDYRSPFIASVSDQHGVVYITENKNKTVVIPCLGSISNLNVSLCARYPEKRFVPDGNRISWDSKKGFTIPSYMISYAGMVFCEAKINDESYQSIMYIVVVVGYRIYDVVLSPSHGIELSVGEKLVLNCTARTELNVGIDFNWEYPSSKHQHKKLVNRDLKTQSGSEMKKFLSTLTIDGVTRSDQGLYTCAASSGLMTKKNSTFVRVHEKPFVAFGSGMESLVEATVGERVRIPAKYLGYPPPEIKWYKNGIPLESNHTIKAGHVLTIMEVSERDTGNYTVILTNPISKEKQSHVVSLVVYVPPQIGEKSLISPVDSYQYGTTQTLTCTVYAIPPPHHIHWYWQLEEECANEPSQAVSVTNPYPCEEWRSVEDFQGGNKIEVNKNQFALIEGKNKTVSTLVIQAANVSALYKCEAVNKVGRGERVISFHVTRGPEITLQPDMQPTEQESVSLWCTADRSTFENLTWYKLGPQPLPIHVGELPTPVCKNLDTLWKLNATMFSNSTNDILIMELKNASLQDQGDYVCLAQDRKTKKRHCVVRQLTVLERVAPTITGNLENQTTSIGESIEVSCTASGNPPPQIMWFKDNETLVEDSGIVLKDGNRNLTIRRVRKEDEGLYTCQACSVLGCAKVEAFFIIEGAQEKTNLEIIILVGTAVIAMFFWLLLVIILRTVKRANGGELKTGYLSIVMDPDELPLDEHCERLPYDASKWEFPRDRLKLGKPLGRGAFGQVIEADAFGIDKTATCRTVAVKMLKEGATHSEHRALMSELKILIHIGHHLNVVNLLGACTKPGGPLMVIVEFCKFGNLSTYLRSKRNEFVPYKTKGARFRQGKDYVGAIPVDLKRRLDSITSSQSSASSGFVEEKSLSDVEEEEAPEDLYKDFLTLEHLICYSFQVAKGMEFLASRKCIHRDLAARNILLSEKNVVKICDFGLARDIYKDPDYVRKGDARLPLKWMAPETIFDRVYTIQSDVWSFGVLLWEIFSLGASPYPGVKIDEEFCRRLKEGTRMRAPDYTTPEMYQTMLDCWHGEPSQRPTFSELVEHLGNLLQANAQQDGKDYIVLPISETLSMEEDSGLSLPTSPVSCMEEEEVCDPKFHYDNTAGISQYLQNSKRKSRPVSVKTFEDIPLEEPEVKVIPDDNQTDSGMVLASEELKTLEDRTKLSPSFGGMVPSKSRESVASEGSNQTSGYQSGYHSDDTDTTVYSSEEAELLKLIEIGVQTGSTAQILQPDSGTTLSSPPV
Data set [1] has as its system Detroit 551 cells. The experiment in a line: Cell proliferation assay (MTT), normal fibroblast Detroit 551. The following applies: Homo sapiens, Detroit 551, 72 h, read-out: IC50 Detroit 551.
Experimental: (§2) Serial dilutions of indicated compounds were added and incubated for additional 72 h. At the end of the incubation, cell viability was determined by the 3-(4,5-dimethylthiazol-2-yl)-2,5-diphenyl tetrazolium bromide (MTT) assay. The MTT formazan crystals formed were dissolved in DMSO, and the absorbance at 570 nm was recorded using a microplate spectrophotometer (Thermo Fisher Scientific, Waltham, MA, USA) [46].
Data set [2] concerns HCT116 cells. The experiment in a line: Cell proliferation assay (MTT), HCT116. The following applies: for IC50: Homo sapiens, HCT-116, 72 h, read-out: IC50 HCT116; for selective index (SI) HCT116: versus Detroit 551.
Experimental: as §2
A further data set deals with 786-O cells. The experiment in a line: Cell proliferation assay (MTT), 786-O. The following applies: for IC50: Homo sapiens, 786-0, 72 h, read-out: IC50 786-O; for selective index (SI) 786-O: versus Detroit 551.
For the next data set, the target named is PDGFRβ (Homo sapiens, UniProt P09619). As to the kind of experiment: In-vitro kinase assay (HotSpot, 33P), PDGFRβ.
Sequence of PDGFRβ (P09619 33-1106): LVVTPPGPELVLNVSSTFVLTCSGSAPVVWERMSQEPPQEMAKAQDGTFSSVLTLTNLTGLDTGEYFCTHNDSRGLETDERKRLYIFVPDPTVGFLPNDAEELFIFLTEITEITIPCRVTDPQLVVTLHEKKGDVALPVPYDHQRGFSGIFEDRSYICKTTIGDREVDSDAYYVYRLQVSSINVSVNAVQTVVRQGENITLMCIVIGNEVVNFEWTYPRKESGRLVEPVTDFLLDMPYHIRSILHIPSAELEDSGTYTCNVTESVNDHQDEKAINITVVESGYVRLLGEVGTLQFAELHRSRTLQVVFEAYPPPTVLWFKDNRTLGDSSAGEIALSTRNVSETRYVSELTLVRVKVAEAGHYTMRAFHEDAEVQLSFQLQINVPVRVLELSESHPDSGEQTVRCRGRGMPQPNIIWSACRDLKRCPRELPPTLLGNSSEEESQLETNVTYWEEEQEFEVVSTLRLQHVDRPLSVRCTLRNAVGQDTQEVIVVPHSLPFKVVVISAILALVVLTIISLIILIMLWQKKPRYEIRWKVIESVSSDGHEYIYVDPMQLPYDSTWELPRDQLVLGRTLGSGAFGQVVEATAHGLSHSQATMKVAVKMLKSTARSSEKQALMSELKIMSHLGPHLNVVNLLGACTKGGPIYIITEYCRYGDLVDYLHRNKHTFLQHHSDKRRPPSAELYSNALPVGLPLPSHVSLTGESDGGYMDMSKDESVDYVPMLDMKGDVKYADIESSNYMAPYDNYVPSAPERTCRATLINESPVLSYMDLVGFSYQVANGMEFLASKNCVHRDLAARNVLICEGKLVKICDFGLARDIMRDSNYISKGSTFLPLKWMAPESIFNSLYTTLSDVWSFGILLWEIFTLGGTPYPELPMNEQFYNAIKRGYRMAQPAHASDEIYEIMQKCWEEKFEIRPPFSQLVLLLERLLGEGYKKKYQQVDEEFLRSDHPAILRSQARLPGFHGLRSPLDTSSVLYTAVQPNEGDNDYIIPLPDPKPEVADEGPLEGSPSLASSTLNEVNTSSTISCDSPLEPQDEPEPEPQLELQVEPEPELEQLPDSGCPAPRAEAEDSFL
The subject of a further data set is HUVEC cells. As to the kind of experiment: In-vitro VEGF-induced Matrigel tube formation assay. In kind it is cell-based, human. Conditions: for IC50: Homo sapiens, HUVEC, VEGF 10 ng/ml, Matrigel, 6 h, read-out: IC50 Area (in vitro tube formation). As to the method:
The in vitro tube formation assay was assessed using ibidi μ-Slides (15-well, ibidi GmbH, Martinsried, Germany) in accordance with manufacturer’s protocol. Briefly, growth factor reduced Matrigel (10 μl) (Sigma, St. Louis MO) was added to the inner well of ibidi μ-Slides, and incubated at 37 °C for 1 h. […] 10,000 HUVEC cells in 50 μl of above growth medium was added to Matrigel (Sigma, St. Louis MO, USA) coated ibidi μ-Slides. After 6 h of incubation at 37 °C, the supernatant was discarded, and 50 μl of serum-free medium with diluted calcein AM (6.25 μg/ml) was added to above ibidi μ-Slides. After incubation in the dark at room temperature for 30 min, the μ-Slides were washed with PBS (50 μl) and fluorescence pictures were taken at 485 nm with a Leica DM1000 LED microscope (Leica Microsystems, Wetzlar, Hessen, Germany).

Data set [3] has as its system HCT116 cells. The experiment in a line: Cell cycle analysis by image cytometry (DAPI). Conditions: 24 h, preliminary.
Experimental: Cell cycle profiles of HCT116 cells were determined with an NC-3000 image cytometer (ChemoMetec, Allerod, Denmark) in accordance with manufacturer’s protocol. Briefly, cells were seeded at 200,000 cells/well on a 6-well plate for 24 h. […] After incubation for 24 h, 100,000 cells were harvested and centrifuged at 400 g at room temperature for 5 min, washed once with PBS (50 μM), and resuspended in lysis buffer (50 μl) (ChemoMetec, Allerod, Denmark) containing 10 μg/ml of 2-(4-amidinophenyl)-1H-indole-6-carboxamidine (DAPI, ChemoMetec, Allerod, Denmark). […] The cellular fluorescence was measured with an NC-3000 image cytometer using NC-SlideA8 (ChemoMetec, Allerod, Denmark). The NC-3000 software (ChemoMetec, Allerod, Denmark) was used for image acquisition, image analysis and quantification, and data visualization.
Another data set concerns the target T1, Aurora A (Homo sapiens, UniProt O14965).
T1 sequence (O14965 1-403): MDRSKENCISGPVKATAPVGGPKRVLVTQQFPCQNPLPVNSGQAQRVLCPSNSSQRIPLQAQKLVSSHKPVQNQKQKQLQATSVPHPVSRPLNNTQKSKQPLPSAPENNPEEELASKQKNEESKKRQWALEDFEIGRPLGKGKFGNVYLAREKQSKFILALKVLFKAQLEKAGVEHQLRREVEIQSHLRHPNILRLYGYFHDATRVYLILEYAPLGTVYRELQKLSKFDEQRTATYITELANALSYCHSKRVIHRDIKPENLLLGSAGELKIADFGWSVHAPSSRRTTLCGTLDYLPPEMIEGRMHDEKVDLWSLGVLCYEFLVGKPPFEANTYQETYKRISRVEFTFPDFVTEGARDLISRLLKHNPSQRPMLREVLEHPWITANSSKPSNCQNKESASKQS
The experiment in a line: In-vitro kinase assay (HotSpot, 33P), Aurora A. The following applies: ATP 10.0 μM; for inhibition at 1 µM: read-out: % inhibition of Aurora A at 1.0 μM, 1.0 μM compound.

Data set [4] concerns HCT116 cells. The method, then: (§1) Cells were seeded at 5000 cells/well on a 96-well plate for 24 h. The indicated compounds in different concentrations (100 μl) were added to cells. After 6 h, old medium was aspirated, and the cells were washed three times with PBS. WST-8 (Dojindo, Rockville, MD, USA) (10 µl) was added to each well, and the absorbance of the plate was recorded at 450 nm on a microplate spectrophotometer (Thermo Fisher Scientific, Waltham, MA, USA).

The subject of data set [5] is Detroit 551 cells. As to the method: as §1

Experimental for 786-O cells: as §2
Experimental for Aurora A: (§3) Briefly, specific kinase and substrate and required cofactors were prepared in reaction buffer. Test compounds were added to the reaction and after 20 min a mixture of ATP (Sigma, St. Louis MO, USA) and ^33P ATP (Perkin Elmer, Waltham MA, USA) was added to make a final concentration of 10.0 μM. Reactions were stood at room temperature for 120 min, and then the reactions were spotted onto a P81 ion exchange filter paper (Whatman Inc., Piscataway, NJ, USA). Unbound phosphate was removed by extensive washing of filters in 0.1% phosphoric acid. Kinase activity data was reported as the percent remaining kinase activity in test compounds compared to the solvent control dimethyl sulfoxide (DMSO).
Experimental for NCI-H460 cells: as §2
Experimental for VEGFR-2: Next, the VEGFR-2 phosphorylation inhibitory activities of the newly synthesized compounds were evaluated.
as §3

For the molecule `CCN(CC)CCN1Cc2[nH]c(/C=C3\C(=O)Nc4ccc(S(N)(=O)=O)cc43)c(C)c2C1=O` [Compound 4, (Z)-3-((5-(2-(diethylamino)ethyl)-3-methyl-4-oxo-1,4,5,6-tetrahydropyrrolo[3,4-b]pyrrol-2-yl)methylene)-2-oxoindoline-5-sulfonamide], the melting point was 252 to 255 °C. Besides, in the data set with NCI-H460 cells, the IC50 was more than 10 µM. Besides, on VEGFR-2, the “% inhibition of VEGFR-2 at 80 nM” value was “did not differ from that of the 1% DMSO (control)” and the inhibition at 0.08 µM amounted to 0%. In addition, in the data set with Detroit 551 cells [1], the IC50 was more than 10 µM. Also, the IC50 with HCT116 cells [2] was more than 10 µM. Further, the IC50 in the data set with 786-O cells is more than 10 µM.

`CCN(CC)CCN1Cc2[nH]c(/C=C3\C(=O)Nc4ccc(S(=O)(=O)N(C)C)cc43)c(C)c2C1=O` [Compound 5, (Z)-3-((5-(2-(diethylamino)ethyl)-3-methyl-4-oxo-1,4,5,6-tetrahydropyrrolo[3,4-b]pyrrol-2-yl)methylene)-N,N-dimethyl-2-oxoindoline-5-sulfonamide]: the melting point fell in the range of 244 to 247 °C. In addition, the IC50 with NCI-H460 cells is more than 10 µM. Besides, the inhibition at 0.08 µM at VEGFR-2 was 20%. In addition, the IC50 in the data set on Detroit 551 cells [1] is more than 10 µM. For the same molecule, in the data set on HCT116 cells [2], the IC50 turned out to be 8.98 ± 0.92 µM and the “selective index (SI) HCT116” value was more than 1.11. Also, the IC50 with 786-O cells is more than 10 µM.

With `CCN(CC)CCN1Cc2[nH]c(/C=C3\C(=O)Nc4ccc(S(=O)(=O)N(CC)CC)cc43)c(C)c2C1=O` [Compound 6, (Z)-3-((5-(2-(diethylamino)ethyl)-3-methyl-4-oxo-1,4,5,6-tetrahydropyrrolo[3,4-b]pyrrol-2-yl)methylene)-N,N-diethyl-2-oxoindoline-5-sulfonamide], the melting point lay in the range of 245 to 247 °C. In addition, the IC50 in the data set with NCI-H460 cells was more than 10 µM. For the same molecule, the inhibition at 0.08 µM on VEGFR-2 was determined as 0%. Further, the IC50 with Detroit 551 cells [1] is more than 10 µM. Further, in the data set with HCT116 cells [2], the IC50 was 4.2 ± 0.57 µM and the “selective index (SI) HCT116” value was more than 2.38. Moreover, the IC50 with 786-O cells was more than 10 µM.

Take `CCN(CC)CCN1Cc2[nH]c(/C=C3\C(=O)Nc4ccc(S(=O)(=O)Nc5ccccc5)cc43)c(C)c2C1=O` [Compound 8, (Z)-3-((5-(2-(Diethylamino)ethyl)-3-methyl-4-oxo-1,4,5,6-tetrahydropyrrolo[3,4-b]pyrrol-2-yl)methylene)-2-oxo-N-phenylindoline-5-sulfonamide]: the melting point fell in the range of 225 to 228 °C. The IC50 in the data set on NCI-H460 cells is more than 10 µM. For the same molecule, at VEGFR-2, the “% inhibition of VEGFR-2 at 80 nM” value was “did not differ from that of the 1% DMSO (control)” and the inhibition at 0.08 µM is 15%. In addition, the IC50 in the data set with Detroit 551 cells [1] is more than 10 µM. Further, in the data set on HCT116 cells [2], the IC50 was more than 10 µM. Moreover, the IC50 in the data set on 786-O cells was more than 10 µM.

On to `CCN(CC)CCN1Cc2[nH]c(/C=C3\C(=O)Nc4ccc(S(=O)(=O)Nc5ccc(C(F)(F)F)cc5)cc43)c(C)c2C1=O` [Compound 9, (Z)-3-((5-(2-(Diethylamino)ethyl)-3-methyl-4-oxo-1,4,5,6-tetrahydropyrrolo[3,4-b]pyrrol-2-yl)methylene)-2-oxo-N-(4-(trifluoromethyl)phenyl)indoline-5-sulfonamide], for which the melting point was in the range of 231 to 234 °C. Further, in the data set with NCI-H460 cells, the IC50 was more than 10 µM. At VEGFR-2, the “% inhibition of VEGFR-2 at 80 nM” value was “did not differ from that of the 1% DMSO (control)” and the inhibition at 0.08 µM came to 0%. The IC50 in the data set on Detroit 551 cells [1] was more than 10 µM. For the same molecule, in the data set on HCT116 cells [2], the 50% inhibitory concentration (IC50) is more than 10 µM. Besides, the IC50 with 786-O cells was more than 10 µM.

Consider `CCN(CC)CCN1Cc2[nH]c(/C=C3\C(=O)Nc4ccc(NS(C)(=O)=O)cc43)c(C)c2C1=O` [Compound 10, (Z)-N-(3-((5-(2-(Diethylamino)ethyl)-3-methyl-4-oxo-1,4,5,6-tetrahydropyrrolo[3,4-b]pyrrol-2-yl)methylene)-2-oxoindolin-5-yl)methanesulfonamide], for which the melting point was in the range of 245 to 247 °C. Also, the IC50 in the data set on NCI-H460 cells was more than 10 µM. The inhibition at 0.08 µM on VEGFR-2 amounted to 4%. Further, the IC50 in the data set with Detroit 551 cells [1] is more than 10 µM. In addition, the IC50 with HCT116 cells [2] was more than 10 µM. In the data set with 786-O cells, the concentration for half-maximal inhibition (IC50) was more than 10 µM.

`CCN(CC)CCN1Cc2[nH]c(/C=C3\C(=O)Nc4ccc(C(F)(F)F)cc43)c(C)c2C1=O` [Compound 11, (Z)-3-((5-(2-(Diethylamino)ethyl)-3-methyl-4-oxo-1,4,5,6-tetrahydropyrrolo[3,4-b]pyrrol-2-yl)methylene)-5-(trifluoromethyl)indolin-2-one] came in with a melting point of 212 to 215 °C. In the data set with NCI-H460 cells, the half-inhibitory concentration (IC50) worked out at 7.22 ± 1.01 µM and the “selective index (SI) NCI-H460” value is more than 1.39. Further, at VEGFR-2, the “% inhibition of VEGFR-2 at 80 nM” value is recorded as “did not differ from that of the 1% DMSO (control); also recorded: no inhibitory activity” and the inhibition at 0.08 µM is 0%. Besides, the IC50 in the data set on Detroit 551 cells [1] is more than 10 µM. Moreover, the IC50 in the data set on HCT116 cells [2] was more than 10 µM. In the data set with 786-O cells, the IC50 was determined as 8.49 ± 0.46 µM and the “selective index (SI) 786-O” value is more than 1.18.

`CCN(CC)CCN1Cc2[nH]c(/C=C3\C(=O)Nc4ccc([N+](=O)[O-])cc43)c(C)c2C1=O` [Compound 12, (Z)-3-((5-(2-(diethylamino)ethyl)-3-methyl-4-oxo-1,4,5,6-tetrahydropyrrolo[3,4-b]pyrrol-2-yl)methylene)-5-nitroindolin-2-one] had a melting point of 229 to 230 °C. Moreover, in the data set on NCI-H460 cells, the half-inhibitory concentration (IC50) came to 6.61 ± 0.8 µM and the “selective index (SI) NCI-H460” value is more than 1.51. Further, on VEGFR-2, the inhibition at 0.08 µM came to 13%. For the same molecule, the IC50 in the data set with Detroit 551 cells [1] is more than 10 µM. In the data set with HCT116 cells [2], the IC50 is more than 10 µM. For the same molecule, the IC50 in the data set with 786-O cells is more than 10 µM.

`CCN(CC)CCN1Cc2[nH]c(/C=C3\C(=O)Nc4ccc(OC)cc43)c(C)c2C1=O` [Compound 13, (Z)-3-((5-(2-(diethylamino)ethyl)-3-methyl-4-oxo-1,4,5,6-tetrahydropyrrolo[3,4-b]pyrrol-2-yl)methylene)-5-methoxyindolin-2-one] came in with a melting point of 214 to 216 °C. In the data set with NCI-H460 cells, the IC50 was determined as 6.37 ± 1.09 µM and the “selective index (SI) NCI-H460” value is more than 1.57. On PDGFRβ, this molecule gave an IC50 of 0.0762 µM. For the same molecule, in the data set with HUVEC cells, the IC50 is 0.74 ± 0.16 µM. Also, in the data set with HUVEC cells (versus sunitinib), the “potency in inhibiting in vitro tube formation relative to sunitinib in terms of IC50” value was “twofold higher”. Also, in the data set on HCT116 cells [3] (3.0 μM), the “cell cycle profile effect” value was “increase in polyploid cells”. At VEGFR-2, inhibition was half-maximal at 0.0478 µM (IC50) and the inhibition at 0.08 µM stood at 41%. Further, the IC50 with Detroit 551 cells [1] was more than 10 µM. Besides, in the data set with HCT116 cells [2], the IC50 was found to be 3.06 ± 0.67 µM and the “selective index (SI) HCT116” value is more than 3.27. Besides, in the data set with 786-O cells, the IC50 turned out to be 7.86 ± 0.3 µM and the “selective index (SI) 786-O” value was more than 1.27. Moreover, on Aurora A (1.0 μM compound), the “% inhibition of Aurora A at 1.0 μM” value is reported as 92.9%. Further, the inhibition at 1 µM at Aurora A turned out to be 94.4%.

As to `CCN(CC)CCNC(=O)c1c(C)[nH]c(/C=C2\C(=O)Nc3ccc(F)cc32)c1C` [Sunitinib, sunitinib, reference compound], the concentration for half-maximal inhibition (IC50) in the data set on NCI-H460 cells came to 7.51 ± 0.78 µM; with HUVEC cells, 1.54 ± 0.08 µM; in the data set on Detroit 551 cells [1] it was 9.48 ± 0.18 µM; in the data set on HCT116 cells [2], 4.6 ± 0.23 µM; in the data set on 786-O cells, 7.89 ± 0.6 µM. The “acute cytotoxicity, HCT116” value in the data set on HCT116 cells [4] is listed as “neither our compounds nor sunitinib had acute cytotoxicity”. In the data set on Detroit 551 cells [5], the “acute cytotoxicity, Detroit 551” value was “neither our compounds nor sunitinib had acute cytotoxicity”. Besides, the “cell cycle profile effect” value in the data set on HCT116 cells [3] (5.0 μM) is listed as “G0/G1 cell cycle arrest”. The inhibition at 1 µM on Aurora A came out at 50.7%.
